“And” between values parts separate entries of the source, which are not always exact repeats. Identical values can stand only once.
Key:
[1] = maximally tolerated dose for female mice, ip qDX5 (P388 study); format: in vivo, mouse; settings: B62DF female mice, ip qDX5 regimen
Protocol: (§1) 10^6 P388 leukemia cells are inoculated ip in B6D2F1 mice. Twenty-four hours later, if the tumor inoculum proves to be free of bacterial contamination (as determined by 24 hours incubation in thioglycollate broth), animals are randomized into groups of 6 and housed in shoebox cages. The compound to be evaluated is dissolved in a minimal volume of either N,N-dimethylacetamide (DMA) or 95% ethanol (depending upon solubility). An equal volume of saline is added; if the drug comes out of solution an equal volume of polyethoxylated castor oil is added and then saline qs to a concentration such that the desired dose is delivered in 0.5 ml. The final concentration of DMA, ethanol and polyethoxylated castor oil is […]. Dilutions for lower doses are made with saline so there is a decreasing proportion of organic solvents in the vehicle with decreasing dosage. These vehicles provide soluble formulations (or suspensions). Formulations are prepared immediately prior to injection. The compound is administered ip on Days 1 through 5 (i.e. treatment is initiated 24 hrs after tumor inoculation). Each experiment includes three groups of 6 animals as untreated controls and animals treated with a positive control, cisplatin, at two dose levels. Animals are weighed as a group on Days 1, 5 and 9 and average weight change (Δ wt.) is used as a reflection of toxicity. Each experiment also includes an inoculum titration-groups of 8 mice inoculated ip with 10^5 to 10^0 P388 leukemia cells. The titration is used to calculate cell kill achieved by treatment with drugs. Animals are monitored daily for mortality and experiments are terminated after 45 days. The endpoint is median survival time (MST) and increase in lifespan (ILS) which is the percentage of increase in MST relative to untreated controls. Untreated controls inoculated ip with 10^6 P388 leukemia cells generally survive for a median of 9 to 11 days. A drug is considered active if it produces ≥25 percent ILS.
^(a) maximally tolerated dose for […] female mice on an ip qDX5

[2] = test system: P388 leukemia; experiment: in vivo ip P388 lymphocytic leukemia mouse model, increase in lifespan; settings: mice bearing ip P388 leukemia; ip Days 1 through 5; figures separated by slashes are data from separate experiments; active if ≥25 percent ILS
Description: P388 lymphocytic leukemia is currently the most widely used animal tumor model for screening for antitumor agents and for detailed evaluation of active compounds. This tumor system is widely accepted as an antitumor agent screening tool because it is sensitive to virtually all of the clinically active antineoplastic agents; quantitative and reproducible; amenable for large-scale screening; and predictive for activity in other animal tumor models.
as §1, with “The endpoint is median survival time (MST) and increase in lifespan (ILS) which is the percentage of increase in MST relative to untreated controls. Untreated controls inoculated ip with 10^6 P388 leukemia cells generally survive for a median of 9 to 11 days. A drug is considered active if it produces ≥25 percent ILS.” left out

[3] = literature, Struck et al. 1966; cited from earlier work
[4] = test system: B16 melanoma; experiment: in vivo ip B16 melanoma assay, increase in lifespan; design: species or system mouse; settings: mice bearing ip B16 melanoma; ip qD × 9; ILS ≥25% indicates activity
Protocol: (§2) In this system, groups of eight B6D2F1 mice are inoculated ip with 0.5 ml of a 10% (w:v) brei of B16 melanoma prepared from pooled sc tumors excised at 14-21 days from […] donor mice. Daily treatment is begun 24 hours after tumor impantation and is continued daily for ten (10) days. The route of drug administration is ip. The mice are monitored daily for survival for sixty (60) days. Antitumor activity is assessed by prolongation of median survival time. An ILS of≥25% indicates activity in this tumor model.
(§3) ^(b) maximally tolerated dose for B6D2F1 mice on an ipqD ×
(§4) 9 regimen (Regimen is preferably qD × 10 but supply of Compound No.
(§5) 3 was extinguished on day 9).
^(c) maximum increase in lifespan produced in mice bearing ip B16

[5] = maximally tolerated dose for B6D2F1 mice, ip qD × 9 (B16 study); format: in vivo, mouse; settings: ip qD × 9 regimen
Protocol: as §2, §3, §4, §5

## OCC1OC([S][Au][PH](CC[PH]([Au][S]C2OC(CO)C(O)C(O)C2O)(c2ccccn2)c2ccccn2)(c2ccccn2)c2ccccn2)C(O)C(O)C1O (stereo not shown) [Compound 4]
[1]
  MTD, maximally tolerated dose: 8 mg/kg
[2]
  ILS (max), maximum increase in lifespan: 85% and 53% and 56%

## c1ccc(P(CCP(c2ccccc2)c2ccccc2)c2ccccc2)cc1 [1,2-bis(diphenylphosphino)ethane]
[3]
  cytotoxic activity: cytotoxic activity

## [Cl][Au][PH](CC[PH]([Au][Cl])(c1ccncc1)c1ccncc1)(c1ccncc1)c1ccncc1 [Compound 2, μ-[1,2-Bis(di-4-pyridylphosphino)ethane]bis(chlorogold)]
[1]
  MTD, maximally tolerated dose: 12 mg/kg

## [Cl][Au][PH](CC[PH]([Au][Cl])(c1ccccn1)c1ccccn1)(c1ccccn1)c1ccccn1 [Compound 1, μ-[1,2-Bis(di-2-pyridylphosphino)ethane]bis(chlorogold)]
[1]
  MTD, maximally tolerated dose: 6 mg/kg
[2]
  ILS (max), maximum increase in lifespan: 55% and 60%

## [Au+].[Cl-].c1ccc(P(CCP(c2ccccn2)c2ccccn2)c2ccccn2)nc1.c1ccc(P(CCP(c2ccccn2)c2ccccn2)c2ccccn2)nc1 [Compound 3, Chlorobis[1,2-bis(di-2-pyridylphosphino)ethane]gold]
[1]
  MTD, maximally tolerated dose: 8 mg/kg
[4]
  ILS, maximum increase in lifespan: 43%
[2]
  ILS (max), maximum increase in lifespan: 80% and 75% and 83% and 84%
[5]
  MTD, maximally tolerated dose: 10 mg/kg
